Data: patent US20240325760A1, “METHODS FOR DETECTING AND PREVENTING ALZHEIMER'S DISEASE AND MILD COGNITIVE IMPAIRMENT” (RAMOT AT TEL-AVIV UNIVERSITY LTD., priority 2021, published 2024)
Where “and” joins values, the source holds several entries; their conditions need not be identical. Identical values can stand only once. Entries after “also recorded” stand apart in the source; their conditions may differ.

How the values were obtained:
[1] = system: nRE-CA1 synapses; assay: nRE-CA1 synaptic transmission in APP/PS1 mice expressing hM4D(Gi)-mCherry; format: in vivo, mouse; conditions: data not shown
[2] = system: anesthetized APP/PS1 mice; assay: LFP recording of epileptiform high-voltage CA1 spikes under anesthesia; format: in vivo
Description: For intracerebroventricular (ICV) ainjections, a small hole was drilled in the skull above the left lateral ventricle (0.7 mm posterior, 1.2 mm lateral to bregma), and a 5 mm guide cannula was slowly inserted into the ventricle and fixed to the skull by dental cement (C&B Metabond, Parkell). The guide cannula was sealed with a 5 mm sterile metal bar to prevent CSF leakage and possible infections. 1-2 weeks after the surgery, the mice received ICV injections using a 10 μl syringe (Hamilton). The mice were injected with 1 μl containing 27 μg of teriflunomide (TERI), dissolved in DMSO or vehicle (1 μl of DMSO) with speed of 0.15 μl/min (Nano Jet stereotaxic syringe pump).
LFP/fEPSP recordings. Small diameter holes were drilled in the skull at the position of the recording and stimulating electrodes. […] Ground electrode was screwed to the skull above the cerebellum. Test stimuli of 50-100 μA were delivered to the SC at 0.06 Hz to verify the proper location of the electrodes and to estimate the stability of the signal. The electrodes were firmly fixed to the skull by dental cement (C&B Metabond, Parkell) and dental acrylic. Operated mice recovered in their home cage for at least a week following electrodes implantation. For evoked field excitatory postsynaptic potential (fEPSP) recordings in CA3-CA1 synapses in awake mice (FIGS. 1F-1G), mice were habituated for a few days to the experimental device that was composed from a running wheel and metal bar in which the mice were head fixed into throughout the experiment with a screw. Following habituation, the mice were head fixed to the experimental device, and CA3-CA1 fEPSP measurements were taken 30 minutes after.
Ca^2+ imaging and LFP recording in anesthetized mice. For Ca^2+ imaging and LFP recording sessions during anesthesia, mice were placed in an induction chamber connected to isoflurane vaporizer (Isotec 5), gas flow rate was turned on to 0.8 LPM (litre per minute) and the vaporizer was set at 5% isoflurane. […] Respiration and heart rate were monitored and analyzed by the physiological monitoring system. […] Temperature was also maintained by the device at 37° C. throughout the procedure.
Detection of pathological spikes in fAD models. High-voltage pathological spikes were detected by setting a threshold of 10 z-scores above and below the mean voltage during the suppression epochs of the recording and accepted only if their peak-to-peak value within 30 ms was greater than 10 z-scores. A dead-time of 50 ms was set to assure the same spike was not counted twice. Subsequently, all spikes were manually inspected and approved.

[3] = system: cultured hippocampal neurons (hippocampal networks ex vivo); assay: Mean firing rate (MFR) of hippocampal cultures on multi-electrode arrays; format: cell-based, mouse; conditions: for network MFR after isoflurane application: isoflurane 1%, 24 hour
Description: Multi-electrode array (MEA). Postnatal hippocampal cultures were plated on MEA plates containing 120 titanium nitride (TiN) electrodes, in addition to 4 internal reference and 4 ground electrodes (Styr et al., 2019). Each electrode has a diameter of 30 μm and electrodes are arranged in a 12×12 grid (sparing 6 electrodes in each corner), spaced 100-200 μm apart on average (Multi Channel Systems, 120MEA200/30iR-Ti). Data acquisition was done in 3-weeks-old cultures using a standard MEA2100-Systems with a hardware filter cut-off of 3.3 kHz and sampling rate of 10 kHz per electrode. Recordings were carried out under constant 37° C. and 5% CO2 levels.
Data analysis: Raw data was filtered, offline, at 200 Hz using a Butterworth high-pass filter. Spikes were then detected, offline, using MC_Rack software (Multi Channel Systems) based on a fixed threshold set to between 5-6 standard deviations from mean. Twenty minutes of each hour (that were previously shown to reliably represent the MFR of the entire hour, were used for analysis to reduce processing time and analyzed using custom-written scripts in MATLAB (Mathworks) as previously described (Slomowitz et al., 2015). Channels with unstable (>30% change of MFR) baseline recordings during 3-4 hours prior to a perturbation were excluded from the analysis.

[4] = system: CA3-CA1 synaptic connections in hippocampal slices; assay: Dose-response of TERI on fEPSP amplitude in acute hippocampal slices; format: cell-based, mouse
Description: Electrophysiology in slices. Acute hippocampal slices (coronal, 400 μm) were prepared from WT and APP/PS1 mice. Slices were transferred to a submerged recovery chamber at 32° C. containing oxygenated (95% O2 and 5% CO2) artificial cerebrospinal fluid (ACSF) for 1 h before the experiment. The ACSF contained, in mM: NaCl, 125; KCl, 2.5; CaCl2, 1.2; MgCl2, 1.2; NaHCO3, 25; NaH2PO4, 1.25; glucose, 25. fEPSPs were recorded in acute hippocampal slices with a glass pipette containing Tyrode solution (1-2 MΩ) from synapses in the CA1 using a MultiClamp700B amplifier (Molecular Devices). Stimulation of the Shaffer Collateral (SC) pathway was delivered through a glass suction electrode (10-20 μm tip) filled with Tyrode. Data were analyzed using pClamp10 (Molecular Devices).

[5] = system: CA1 neuronal populations of WT and APP/PS1 mice; assay: Ca2+ imaging of CA1 population activity under anesthesia; format: in vivo, mouse
[6] = system: APP/PS1 mice; assay: Spatial working memory, delta-maze alternation test after general anesthesia; format: in vivo, mouse; conditions: 4-5-month-old APP/PS1 mice; isoflurane inhalation 1.5%, 3 hour; 10, 20 and 60 sec delays

For `C[N+]1([O-])CCN(C2=Nc3cc(Cl)ccc3Nc3ccccc32)CC1` [CNO], the nRE-CA1 synaptic transmission [1] was “suppressed” and the “decrease in the rate of epileptiform CA1 spikes vs vehicle” value ([2]; i.p. 5 mg/kg, anesthetized APP/PS1 mice expressing hM4D(Gi)-mCherry in nRE-CA1 synapses) was ~53%.
For `C/C(O)=C(\C#N)C(=O)Nc1ccc(C(F)(F)F)cc1` [TERI, (2Z)-2-cyano-3-hydroxy-N-[4-(trifluoromethyl)phenyl]but-2-enamide], the “negative regulation of MFR set points by TERI” value ([3]; APP/PS1 networks ex vivo, data not shown) was “preserved”, the IC50 ([4]; Mus musculus, hippocampal slices of APP/PS1 mice) was 19.1 µM and the IC50 ([4]; Mus musculus, hippocampal slices of WT mice) was 17.6 µM. The IC50 ([4]; hippocampal slices of APP/PS1 mice) was 19.2 ± 1 µM, the “reduction in the frequency of high-voltage CA1 spikes vs baseline” value ([2]; ICV 27 μg in 1 μl, anesthetized APP/PS1 mice) was ~50% and 50.7±7.2% and the “frequency of high-voltage spikes after TERI ICV injection” value ([2]; ICV 27 μg in 1 μl, baseline 7.6±1.4 per min, n=9 anesthetized APP/PS1 mice) was 3.8±0.95 per min.
In the case of `NC1=N[C@H](O)[C@H]2[C@H]3O[C@]4(O)O[C@@H]([C@@H](O)[C@@]2(N1)[C@@H]4O)[C@]3(O)CO` [TTX, tetrodotoxin], the “rate of epileptiform CA1 spikes vs baseline” value ([2]; mouse, in vivo) is reported as “profound decrease; also recorded: reduction”.
`NCC(CC(=O)O)c1ccc(Cl)cc1` (stereo not shown) [baclofen] was tested, and the “MFR homeostatic response to chronic inactivity” value ([3]; baclofen 10 μM, WT and APP/PS1 networks, first day of perturbation) was “homeostatically compensated”.
For `COc1ccc(-c2ccc(=N)n(CCCC(=O)O)n2)cc1` [gabazine], the “MFR renormalization following 2 days of gabazine application” value ([3]; 30 μM, APP/PS1 neurons) was “disrupted”, the “population firing rate on gabazine application (acute)” value ([3]; 30 μM, WT networks) was “fast and pronounced increase” and the “MFR following 2 days of gabazine application” value ([3]; 30 μM, WT neurons) was “renormalized to the baseline level”.
With `FC(F)OC(Cl)C(F)(F)F` (stereo not shown) [isoflurane] the “CA1 activity under anesthesia” value ([5]; APP/PS1 mice) was “maintained constant”, the “suppression of total CA1 activity” value ([5]; WT mice, deep anesthesia (1.5% isoflurane)) was ~87% and the “suppression of total CA1 activity” value ([5]; WT mice, moderate anesthesia (1% isoflurane)) was ~57%. The “network MFR after isoflurane application” value ([3]; APP/PS1 cultures) was 112.5±8.7 % of baseline, the “network MFR after isoflurane application” value ([3]; WT cultures) was 42.0±0.9 % of baseline and the “epileptiform high-voltage spikes in CA1” value ([2]; 4-5 months old APP/PS1 mice under general anesthesia (1.5% isoflurane)) was 3.22±0.51 per min. For the same compound, the “choice accuracy in delta maze following anesthesia” value [6] was “decrease in choice accuracy”.
With `Cc1cccc(C(C)c2cnc[nH]2)c1C` (stereo not shown) [medetomidine] the “CA1 activity under anesthesia” value ([5]; APP/PS1 mice) was “much lower level of suppression” and the “CA1 activity under anesthesia” value ([5]; WT mice, data not shown) was “pronounced inhibition of CA1 activity”.
